Experimental data published in patent publication US11072596B2, “Poly(ADP-ribose) polymerase inhibitor, preparation method and use” (SELECTION BIOSCIENCE LLC, priority 2017, dated 2021).
Read-outs that look alike come from different tables or passages of the source.

Target: T1, CYP3A4 (Homo sapiens, UniProt P08684)
T1 construct: from tissue; host or cells: human liver microsomes (HLM)
Test: Inhibition of human liver microsomal CYP450 enzymes, CYP3A4
Type: in vitro ADME
Settings: human liver microsomes, Reference = ketoconazole
Method: The inhibitory effects of the compound of the present disclosure on the CYP450 enzymes of six human subtypes were determined by the following experimental method:
Substrate concentration: CYP1A2: Phenacetin at 30 μM; CYP2C9: Diclofenac at 10 μM; CYP2C19: S-Mephenytoin at 35 μM; CYP3A4: Midazolam at 5 μM and Testosterone at 80 μM; CYP2D6: Bufuralol at 10 μM.
0.2 mg/mL of HLM was added to the test wells, 400 μL per well, and then the gradient diluted 400× test compound was added to the corresponding wells.
0.2 mg/mL of HLM was added to the test wells, 200 μL per well, and then the gradient-diluted reference inhibitor was added to the corresponding wells. Steps 6 and 7 needed to be performed on ice.
30 μL of test compound and reference compound were mixed in 0.2 mg/mL of HLM solution (see steps 6 and 7).
15 μL of 4× substrate solution (see step 4) was added.
Preheated 8 mM of NADPH solution was added to the 96-well test plate (see step 3) to initiate the reaction, 15 μL per well.
The test plate was incubated at 37° C.: 3A4 for 5 minutes, each of 1A2, 2C9 and 2D6 for 10 minutes, and 2C19 for 45 minutes.
ACN containing internal reference was added to stop the reaction, 120 μL per well.
50 μL of supernatant from each well was transferred to a 96-well sample plate containing 50 μL of ultrapure water (Millipore, ZMQS50F01) for LC/MS analysis. […]

T1 sequence (P08684 whole entry): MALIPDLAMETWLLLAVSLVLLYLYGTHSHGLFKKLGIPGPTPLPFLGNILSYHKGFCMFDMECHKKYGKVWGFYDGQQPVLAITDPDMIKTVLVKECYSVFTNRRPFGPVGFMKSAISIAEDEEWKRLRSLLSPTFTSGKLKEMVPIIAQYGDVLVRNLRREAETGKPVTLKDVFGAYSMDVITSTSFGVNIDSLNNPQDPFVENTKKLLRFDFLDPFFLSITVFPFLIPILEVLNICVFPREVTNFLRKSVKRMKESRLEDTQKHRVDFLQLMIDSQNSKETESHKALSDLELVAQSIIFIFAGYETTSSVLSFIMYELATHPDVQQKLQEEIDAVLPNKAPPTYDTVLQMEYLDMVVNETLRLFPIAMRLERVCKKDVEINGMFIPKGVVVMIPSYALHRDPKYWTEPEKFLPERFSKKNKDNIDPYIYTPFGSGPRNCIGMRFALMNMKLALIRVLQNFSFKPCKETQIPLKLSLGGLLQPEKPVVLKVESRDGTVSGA

NC(=O)c1cccc2cn(-c3ccc([C@]4(F)CCCNC4)cc3)nc12 (single isomer, unassigned) [Example 23, (R or S)-2-(4-(3-fluoropiperidin-3-yl)phenyl)-2H-indazole-7-carboxamide] was tested, and the IC50 (substrate Midazolam 5 μM, read-out: IC50 3A4 (Midazolam)) was > 10 µM and the IC50 (substrate Testosterone 80 μM, read-out: IC50 3A4 (Testosterone)) was > 10 µM.
